One experiment has as its target T1, HBV polymerase (Hepatitis B virus genotype D subtype ayw, UniProt P03156).
T1 construct: HBV virion stock (˜5×10^7 genome equivalents) concentrated from the supernatant of HepDE19 cells cultured in tetracycline-free medium; expressed in transfected cells; host or cells: HepDE19 cells (HBV-producing line, tetracycline-off); virions concentrated from the supernatant
The experiment is described as follows: endogenous DNA polymerase reaction (EPR). The following applies: for HBV polymerase activity: in vitro endogenous polymerase reaction, HBV virions from HepDE19 culture fluid. Type of experiment: biochemical. Here is the method: Endogenous DNA polymerase reaction (EPR): The EPR was performed as previously described with modifications (Guo, H., R. Mao, T. M. Block, and J. T. Guo. 2010). Briefly, EPR mixture was assembled with 10 μl of HBV virion stock (˜5×10^7 genome equivalents) concentrated from the supernatant of HepDE19 cells cultured in tetracycline-free medium (Guo, H., D. Jiang, T. Zhou, A. Cuconati, T. M. Block, and J. T. Guo. 2007, plus 15 μl of 2×EPR buffer which consisted of 0.3 M NaCl, 0.1 M Tris-HCl (pH 8.0), 20 mM MgCl2, 2 mM dithiothreitol, 0.2% (vol/vol) Nonidet P-40, 0.2 mM each of dATP/dGTP/dTTP, and 10 μM α-^32P-dCTP. Compounds were added as indicated and water was supplemented to bring the reaction volume to 30 μl. As a positive control, 0.2 mM of dGTP in the 2×EPR buffer was replaced with 0.2 mM ddGTP. After incubation at 37° C. for 1 hours, the reaction solution was dotted on Whatman 3M filter (Millipore, Billerica, Mass.) and subjected to rinse with 10% trichloride acid for 30 min at room temperature, followed by 3 times of wash with 95% ethanol, 5 min each. The radioactivity (counts of per minute, CPM) of acid insoluble ^32P was counted with a liquid scintillation counter (PerkinElmer, Waltham, Mass.).

The test system of experiment [1] is HBV e antigen (HBeAg) production in HepDE19 cells. As to the kind of experiment: HBeAg ELISA in HepDE19 cells (surrogate marker for cccDNA). Type of experiment: cell-based, hepatitis B virus. The conditions noted are these: nine days incubation. The procedure: High throughput compound screen and assay: HepDE19 cells were cultured under tetracycline containing medium until confluent, the cells were then trypsinized and seeded in 96-well plates at a density of 5.0×10^4 cells/well with tetracycline-free medium to induce HBV replication. Immediately following cell seeding, compounds were added to screening plates by means of automated liquid handling (Beckman Coulter, Brea, Calif.), at a final concentration of 10 μM in 1.0% DMSO. Each screening plate consisted of 80 compound test wells, 4 wells of cells with 1.0% DMSO only, 4 wells with DMSO and without cells, and 4 wells of cells with DMSO and 50 μM lamivudine (3TC) as a reference inhibitor. […] Intracellular HBeAg (precore) accumulation was assayed by indirect ELISA assay as follows. Media was removed from wells and the cell monolayer was fixed with 100% ice cold methanol for 20 min, followed with two washes (150 μl each) with PBS containing 0.5% Tween-20 (PBST) with 1 min incubation at room temperature. […] Signal was allowed to develop for 20 minutes and optical absorbance was determined at a wavelength of 650 nm with a reference reading at 490 nm. […]

T1 sequence (P03156 whole entry): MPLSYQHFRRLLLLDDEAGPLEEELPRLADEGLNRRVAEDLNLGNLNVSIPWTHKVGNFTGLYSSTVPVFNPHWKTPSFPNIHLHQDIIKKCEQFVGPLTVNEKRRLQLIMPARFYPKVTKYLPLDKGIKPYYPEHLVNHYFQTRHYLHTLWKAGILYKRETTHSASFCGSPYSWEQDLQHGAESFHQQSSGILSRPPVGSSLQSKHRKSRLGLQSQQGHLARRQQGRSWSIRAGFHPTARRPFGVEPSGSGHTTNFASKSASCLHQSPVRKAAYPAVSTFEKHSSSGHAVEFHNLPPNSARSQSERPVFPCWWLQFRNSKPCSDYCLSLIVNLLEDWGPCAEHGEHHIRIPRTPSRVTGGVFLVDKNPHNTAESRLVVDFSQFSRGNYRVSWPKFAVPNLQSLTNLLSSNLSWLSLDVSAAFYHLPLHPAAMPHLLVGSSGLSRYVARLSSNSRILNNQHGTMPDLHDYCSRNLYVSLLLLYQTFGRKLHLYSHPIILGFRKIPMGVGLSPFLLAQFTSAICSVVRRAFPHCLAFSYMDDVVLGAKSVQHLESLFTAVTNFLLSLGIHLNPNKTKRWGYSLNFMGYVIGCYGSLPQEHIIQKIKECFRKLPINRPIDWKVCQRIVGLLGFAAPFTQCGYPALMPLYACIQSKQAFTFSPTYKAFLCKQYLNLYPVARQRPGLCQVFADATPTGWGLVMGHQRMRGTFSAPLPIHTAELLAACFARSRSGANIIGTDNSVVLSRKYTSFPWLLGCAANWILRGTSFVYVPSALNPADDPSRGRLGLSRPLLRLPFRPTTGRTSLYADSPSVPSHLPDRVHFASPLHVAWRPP

Turning to `Cc1nc2cc(NC(=O)c3ccc(S(=O)(=O)N(C)Cc4ccccc4)cc3)ccc2s1` [CCC-0346, 4-(Benzyl-methyl-sulfamoyl)-N-(2-methyl-benzothiazol-5-yl)-benzamide], the viral polymerase activity result at HBV polymerase (endogenous polymerase reaction, compound at 3 μM) is reported as “does not inhibit”. The HBV polymerase activity result at HBV polymerase was “did not inhibit”. Moreover, in experiment [1], the HBeAg production entry is recorded as “inhibitor”.
In the case of `O=C(CN(c1cc(C(F)(F)F)ccc1Cl)S(=O)(=O)c1ccccc1)NCc1ccncc1` [CCC-0975, 2-[Benzenesulfonyl-(2-chloro-5-trifluoromethyl-phenyl)-amino]-N-pyridin-4-ylmethyl-acetamide], the HBV polymerase activity entry is on record as “does not inhibit” on HBV polymerase (listed as 2-[Benzenesulfonyl-(2-chloro-5-trifluoromethyl-phenyl)-amino]-N-pyridin-4-ylmeth) and “did not inhibit” at HBV polymerase (listed as 2-[benzenesulfonyl-(2-chloro-5-trifluoromethyl-phenyl)-amino]-N-pyridin-4-ylmeth). Moreover, the HBeAg production result in experiment [1] was “inhibitor”.
